Test results: ChEMBL document CHEMBL5365522, “Discovery of potential novel TRPC5 inhibitors by virtual screening and bioassay” (Bioorg Med Chem, 2023)
Activity calls are given as the source filed them. The calls are words filed in the database; no cut-off is given here.

How the values were obtained:
[1] = molecular target: T1, Short transient receptor potential channel 5 (Homo sapiens) (UniProt Q9UL62); experiment: Inhibition of human TRPC5 expressed in HEK293T cells assessed as intracellular calcium influx at 30 uM measured after 30 mins by Fluo-4 AM dye based fluorescence analysis; type: cell-based
T1 sequence (whole entry): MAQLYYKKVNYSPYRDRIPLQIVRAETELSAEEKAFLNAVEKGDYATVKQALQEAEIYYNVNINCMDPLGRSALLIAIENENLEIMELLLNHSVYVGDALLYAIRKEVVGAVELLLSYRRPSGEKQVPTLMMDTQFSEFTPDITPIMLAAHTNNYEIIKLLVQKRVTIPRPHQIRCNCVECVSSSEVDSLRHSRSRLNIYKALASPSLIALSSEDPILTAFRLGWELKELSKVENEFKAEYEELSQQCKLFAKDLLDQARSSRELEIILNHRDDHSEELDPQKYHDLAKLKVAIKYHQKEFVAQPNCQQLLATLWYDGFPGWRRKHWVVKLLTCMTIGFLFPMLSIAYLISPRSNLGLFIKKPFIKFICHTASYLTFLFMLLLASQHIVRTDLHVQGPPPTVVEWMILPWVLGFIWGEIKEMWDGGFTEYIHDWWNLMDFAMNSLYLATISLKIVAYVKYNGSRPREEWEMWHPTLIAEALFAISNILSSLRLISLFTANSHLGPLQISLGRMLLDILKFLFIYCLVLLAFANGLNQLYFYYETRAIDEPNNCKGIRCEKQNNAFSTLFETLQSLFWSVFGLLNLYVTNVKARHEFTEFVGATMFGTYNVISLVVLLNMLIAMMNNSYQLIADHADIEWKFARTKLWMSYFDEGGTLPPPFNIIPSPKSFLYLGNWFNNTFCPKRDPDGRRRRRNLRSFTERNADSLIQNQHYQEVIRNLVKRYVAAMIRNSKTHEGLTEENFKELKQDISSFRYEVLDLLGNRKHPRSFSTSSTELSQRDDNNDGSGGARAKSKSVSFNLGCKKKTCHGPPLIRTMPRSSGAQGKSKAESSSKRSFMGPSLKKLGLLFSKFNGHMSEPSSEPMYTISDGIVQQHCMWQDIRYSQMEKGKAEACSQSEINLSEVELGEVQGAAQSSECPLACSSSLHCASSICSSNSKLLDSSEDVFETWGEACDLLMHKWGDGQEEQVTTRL

HEK-293T [2] = experiment: Cytotoxicity against human HEK293T cells expressing human TRPC5 assessed as cell death incubated for 24 hrs by MTS assay; type: toxicity, cell-based
[3] = molecular target: T2, Short transient receptor potential channel 5 (Homo sapiens, UniProt Q9UL62); experiment: Inhibition of human TRPC5 expressed in HEK293T cells assessed as intracellular calcium influx by measuring Ca2+ flow inhibition after 30 mins by Fluo-4 AM dye based fluorescence analysis; type: cell-based
T2 sequence (Q9UL62 whole entry): T1 sequence (whole entry)

HEK-293T [4] = experiment: Cytotoxicity against human HEK293T cells expressing human TRPC5 assessed as reduction in cell viability at 100 uM incubated for 24 hrs by MTS assay; type: toxicity, cell-based

| SMILES | inhibition [1] | Activity (HEK-293T [2]) | IC50 [3] [µM] | Activity (HEK-293T [4]) |
| --- | --- | --- | --- | --- |
| CC(c1ccccc1)n1c(CCCO)nc2ccccc21 (stereo unspecified) | Active | Toxic |  |  |
| c1ccc(Cn2c(NCc3ccco3)nc3ccccc32)cc1 |  |  | 14.9 |  |
| O=C(Cc1cccc(F)c1)NCc1nnc2ccc(-c3ccc(F)cc3)nn12 | Active |  | 10.2 | Non-Toxic |
